Assay results from article PMC11233931, “Remodeling tumor‐associated macrophage for anti‐cancer effects by rational design of irreversible inhibition of mitogen‐activated protein kinase‐activated protein kinase 2” (MedComm, 2024).
Read-outs that look alike come from different tables or passages of the source.

What was measured:
Assay in all cases: Eurofins kinase selectivity profile against 380 other human recombinant kinases (Table S2)
Format in all cases: biochemical
[1] = target: T1, 380 human recombinant protein kinases (Homo sapiens, UniProt O75676); details: MSK2(h), read-out: Inhibition rate
T1 construct: purchased Eurofins (Celle Lévescault)
T1 sequence (O75676 whole entry): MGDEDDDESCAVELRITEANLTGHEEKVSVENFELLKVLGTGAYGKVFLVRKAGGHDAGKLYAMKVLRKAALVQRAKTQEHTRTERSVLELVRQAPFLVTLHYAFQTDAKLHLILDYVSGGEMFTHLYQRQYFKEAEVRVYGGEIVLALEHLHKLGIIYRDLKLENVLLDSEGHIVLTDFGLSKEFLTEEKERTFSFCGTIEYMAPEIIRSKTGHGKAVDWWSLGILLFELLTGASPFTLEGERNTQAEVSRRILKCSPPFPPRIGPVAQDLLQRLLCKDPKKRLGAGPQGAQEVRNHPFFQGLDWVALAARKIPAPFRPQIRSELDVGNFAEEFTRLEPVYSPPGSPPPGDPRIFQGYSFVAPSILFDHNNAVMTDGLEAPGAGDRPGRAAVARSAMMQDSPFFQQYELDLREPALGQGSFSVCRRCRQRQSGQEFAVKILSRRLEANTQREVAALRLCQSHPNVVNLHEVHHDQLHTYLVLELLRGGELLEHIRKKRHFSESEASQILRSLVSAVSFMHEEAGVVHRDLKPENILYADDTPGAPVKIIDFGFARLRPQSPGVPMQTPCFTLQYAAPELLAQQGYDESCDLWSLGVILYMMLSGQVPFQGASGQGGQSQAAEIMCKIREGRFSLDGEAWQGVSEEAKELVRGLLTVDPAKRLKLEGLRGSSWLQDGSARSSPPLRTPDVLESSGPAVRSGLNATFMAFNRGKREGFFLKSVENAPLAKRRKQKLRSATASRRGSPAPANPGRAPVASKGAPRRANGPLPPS
In short: (§1)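 Profiling against 380 human recombinant kinases carried out by Eurofins at various compound concentrations.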

[2] = target: T2, 380 human recombinant protein kinases (Homo sapiens, UniProt P08922); details: Ros(h), read-out: Inhibition rate
T2 construct: purchased Eurofins (Celle Lévescault)
T2 sequence (P08922 28-2347): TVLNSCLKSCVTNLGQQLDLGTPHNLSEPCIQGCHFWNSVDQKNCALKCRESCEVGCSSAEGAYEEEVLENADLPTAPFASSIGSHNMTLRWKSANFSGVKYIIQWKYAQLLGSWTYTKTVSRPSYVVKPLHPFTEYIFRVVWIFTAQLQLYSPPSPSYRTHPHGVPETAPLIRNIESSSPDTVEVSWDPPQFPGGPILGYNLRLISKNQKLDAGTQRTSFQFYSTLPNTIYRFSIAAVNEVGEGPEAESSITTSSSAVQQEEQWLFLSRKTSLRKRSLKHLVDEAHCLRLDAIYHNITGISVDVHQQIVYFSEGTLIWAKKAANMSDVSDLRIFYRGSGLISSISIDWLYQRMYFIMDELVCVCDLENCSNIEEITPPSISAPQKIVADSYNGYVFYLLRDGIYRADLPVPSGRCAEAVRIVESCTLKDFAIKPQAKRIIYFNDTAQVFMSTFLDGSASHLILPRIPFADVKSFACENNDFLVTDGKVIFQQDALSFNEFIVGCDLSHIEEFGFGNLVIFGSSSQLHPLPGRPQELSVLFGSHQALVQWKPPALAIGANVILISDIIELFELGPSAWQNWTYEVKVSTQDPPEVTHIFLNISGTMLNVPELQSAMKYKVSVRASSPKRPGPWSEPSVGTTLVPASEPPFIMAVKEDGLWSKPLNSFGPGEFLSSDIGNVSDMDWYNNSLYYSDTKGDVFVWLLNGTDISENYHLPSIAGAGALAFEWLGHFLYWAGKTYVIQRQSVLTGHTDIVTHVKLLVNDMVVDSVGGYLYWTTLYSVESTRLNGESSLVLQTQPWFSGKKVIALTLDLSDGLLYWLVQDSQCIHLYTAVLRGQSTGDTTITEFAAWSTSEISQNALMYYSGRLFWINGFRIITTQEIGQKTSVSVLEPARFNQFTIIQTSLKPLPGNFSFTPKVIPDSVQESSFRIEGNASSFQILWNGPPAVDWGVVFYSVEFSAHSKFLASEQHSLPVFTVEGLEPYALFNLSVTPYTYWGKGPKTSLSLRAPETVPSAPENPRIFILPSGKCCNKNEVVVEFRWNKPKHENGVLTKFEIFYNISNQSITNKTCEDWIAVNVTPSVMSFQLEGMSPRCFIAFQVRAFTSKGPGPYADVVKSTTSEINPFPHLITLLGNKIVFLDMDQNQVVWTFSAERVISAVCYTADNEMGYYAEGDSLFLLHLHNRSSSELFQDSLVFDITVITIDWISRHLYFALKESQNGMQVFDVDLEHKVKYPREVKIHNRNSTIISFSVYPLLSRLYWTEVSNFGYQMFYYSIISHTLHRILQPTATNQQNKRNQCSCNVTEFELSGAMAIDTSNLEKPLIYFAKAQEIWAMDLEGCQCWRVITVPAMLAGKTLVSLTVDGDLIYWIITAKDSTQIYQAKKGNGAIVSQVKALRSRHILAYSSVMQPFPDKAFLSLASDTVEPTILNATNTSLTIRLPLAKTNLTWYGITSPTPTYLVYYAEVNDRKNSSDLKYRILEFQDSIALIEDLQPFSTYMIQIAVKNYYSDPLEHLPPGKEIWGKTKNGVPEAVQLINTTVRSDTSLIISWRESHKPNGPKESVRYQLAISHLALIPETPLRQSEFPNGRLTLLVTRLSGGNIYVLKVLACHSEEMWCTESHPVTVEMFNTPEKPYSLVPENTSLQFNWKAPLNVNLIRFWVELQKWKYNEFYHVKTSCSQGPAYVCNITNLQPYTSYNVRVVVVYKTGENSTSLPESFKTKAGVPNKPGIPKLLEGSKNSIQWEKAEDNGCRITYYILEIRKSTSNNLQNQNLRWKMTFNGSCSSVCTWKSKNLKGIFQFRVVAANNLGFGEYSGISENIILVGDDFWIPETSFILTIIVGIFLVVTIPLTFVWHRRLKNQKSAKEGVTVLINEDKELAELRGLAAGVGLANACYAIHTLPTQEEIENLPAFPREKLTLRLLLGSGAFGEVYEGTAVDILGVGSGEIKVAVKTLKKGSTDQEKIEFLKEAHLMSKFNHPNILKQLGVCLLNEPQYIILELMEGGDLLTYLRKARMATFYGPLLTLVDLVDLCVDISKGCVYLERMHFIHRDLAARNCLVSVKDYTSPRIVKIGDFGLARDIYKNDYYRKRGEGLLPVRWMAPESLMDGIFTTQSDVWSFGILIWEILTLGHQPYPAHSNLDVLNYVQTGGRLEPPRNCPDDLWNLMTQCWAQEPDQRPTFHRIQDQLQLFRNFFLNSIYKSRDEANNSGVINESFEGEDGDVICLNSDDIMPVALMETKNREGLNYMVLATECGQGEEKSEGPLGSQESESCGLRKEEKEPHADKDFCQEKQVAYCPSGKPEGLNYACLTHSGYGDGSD
In short: as §1

[3] = target: T3, 380 human recombinant protein kinases (Homo sapiens, UniProt P42336, E545K); details: PI3 Kinase (p110α(E545K)/p85α)(h), read-out: Inhibition rate (%)
T3 construct: purchased Eurofins (Celle Lévescault)
In short: as §1

[4] = target: T4, 380 human recombinant protein kinases (Homo sapiens, UniProt P42345); details: read-out: Inhibition rate; for inhibition at 0.01 µM: 10 nM; for inhibition at 0.1 µM: 100 nM; for inhibition at 1 µM: 1000 nM
T4 construct: purchased Eurofins (Celle Lévescault)
In short: as §1

[5] = target: T5, 380 human recombinant protein kinases (Homo sapiens, UniProt P49761); details: CLK3(h), read-out: Inhibition rate
T5 construct: purchased Eurofins (Celle Lévescault)
T5 sequence (P49761 whole entry): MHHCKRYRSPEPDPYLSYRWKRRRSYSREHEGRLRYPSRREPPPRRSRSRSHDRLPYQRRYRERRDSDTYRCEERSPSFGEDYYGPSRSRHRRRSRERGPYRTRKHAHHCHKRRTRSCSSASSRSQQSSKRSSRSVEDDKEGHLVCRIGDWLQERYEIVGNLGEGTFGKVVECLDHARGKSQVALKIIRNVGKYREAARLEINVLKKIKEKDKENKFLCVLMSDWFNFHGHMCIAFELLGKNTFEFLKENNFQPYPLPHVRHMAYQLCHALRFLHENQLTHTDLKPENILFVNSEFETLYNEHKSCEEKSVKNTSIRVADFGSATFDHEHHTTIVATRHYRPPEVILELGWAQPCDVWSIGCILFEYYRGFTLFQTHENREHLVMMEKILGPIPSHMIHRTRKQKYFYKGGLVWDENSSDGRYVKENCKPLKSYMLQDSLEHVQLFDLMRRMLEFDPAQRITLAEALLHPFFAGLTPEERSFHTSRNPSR
In short: as §1

[6] = target: T6, 380 human recombinant protein kinases (Homo sapiens, UniProt Q08881); details: Itk(h), read-out: Inhibition rate
T6 construct: purchased Eurofins (Celle Lévescault)
T6 sequence (Q08881 1-620): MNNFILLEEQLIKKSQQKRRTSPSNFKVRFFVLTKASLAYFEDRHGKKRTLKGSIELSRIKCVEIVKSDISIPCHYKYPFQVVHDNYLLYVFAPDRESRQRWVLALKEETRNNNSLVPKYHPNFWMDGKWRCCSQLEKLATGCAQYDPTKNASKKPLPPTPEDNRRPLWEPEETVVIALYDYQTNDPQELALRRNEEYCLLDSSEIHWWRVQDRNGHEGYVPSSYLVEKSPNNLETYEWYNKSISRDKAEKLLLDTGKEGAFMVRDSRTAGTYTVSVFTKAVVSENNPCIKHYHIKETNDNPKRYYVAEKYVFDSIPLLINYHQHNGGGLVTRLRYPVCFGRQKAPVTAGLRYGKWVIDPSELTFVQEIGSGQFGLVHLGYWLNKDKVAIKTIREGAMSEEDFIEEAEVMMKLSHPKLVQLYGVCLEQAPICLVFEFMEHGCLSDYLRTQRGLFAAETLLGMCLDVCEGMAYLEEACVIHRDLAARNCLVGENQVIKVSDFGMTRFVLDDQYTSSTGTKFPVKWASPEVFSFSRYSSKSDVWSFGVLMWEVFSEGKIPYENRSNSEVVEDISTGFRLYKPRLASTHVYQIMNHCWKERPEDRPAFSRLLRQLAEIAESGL
In short: as §1

[7] = target: T7, 380 human recombinant protein kinases (Homo sapiens, UniProt Q86Y07); details: VRK2(h), read-out: Inhibition rate (%)
T7 construct: purchased Eurofins (Celle Lévescault)
T7 sequence (Q86Y07 whole entry): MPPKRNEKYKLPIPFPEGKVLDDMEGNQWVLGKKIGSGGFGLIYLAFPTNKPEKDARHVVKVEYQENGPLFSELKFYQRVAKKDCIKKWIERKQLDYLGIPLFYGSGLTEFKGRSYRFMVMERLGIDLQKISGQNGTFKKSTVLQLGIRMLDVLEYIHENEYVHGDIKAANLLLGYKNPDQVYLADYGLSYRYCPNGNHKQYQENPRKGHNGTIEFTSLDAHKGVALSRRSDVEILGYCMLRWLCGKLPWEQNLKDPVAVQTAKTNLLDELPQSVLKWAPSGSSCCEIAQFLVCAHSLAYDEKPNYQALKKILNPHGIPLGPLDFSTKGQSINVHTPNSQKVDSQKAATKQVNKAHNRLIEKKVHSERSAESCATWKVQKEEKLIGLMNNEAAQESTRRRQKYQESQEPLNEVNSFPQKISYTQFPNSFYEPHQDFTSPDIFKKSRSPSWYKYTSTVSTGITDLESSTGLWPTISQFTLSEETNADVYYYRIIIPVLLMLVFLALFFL
In short: as §1

[8] = target: T8, 380 human recombinant protein kinases (Homo sapiens, UniProt Q8IVW4); details: CDKL3(h), read-out: Inhibition rate
T8 construct: purchased Eurofins (Celle Lévescault)
In short: as §1

[9] = target: T9, 380 human recombinant protein kinases (Homo sapiens, UniProt Q8IY84); details: NIM1(h), read-out: Inhibition rate
T9 construct: purchased Eurofins (Celle Lévescault)
T9 sequence (Q8IY84 whole entry): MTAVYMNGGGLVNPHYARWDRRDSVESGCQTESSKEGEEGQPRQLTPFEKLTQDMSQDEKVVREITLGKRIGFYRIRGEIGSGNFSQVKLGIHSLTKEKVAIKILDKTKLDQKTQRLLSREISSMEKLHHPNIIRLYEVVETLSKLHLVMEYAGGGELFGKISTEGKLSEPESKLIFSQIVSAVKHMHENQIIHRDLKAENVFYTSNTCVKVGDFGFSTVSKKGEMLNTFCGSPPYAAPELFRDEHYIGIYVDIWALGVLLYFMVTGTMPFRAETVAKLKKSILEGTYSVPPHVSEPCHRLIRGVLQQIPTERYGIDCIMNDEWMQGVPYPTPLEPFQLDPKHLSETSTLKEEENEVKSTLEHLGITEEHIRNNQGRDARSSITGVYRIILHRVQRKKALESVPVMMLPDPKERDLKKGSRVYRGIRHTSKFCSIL
In short: as §1

[10] = target: T10, 380 human recombinant protein kinases (Homo sapiens, UniProt Q8NG66); details: NEK11(h), read-out: Inhibition rate
T10 construct: purchased Eurofins (Celle Lévescault)
T10 sequence (Q8NG66 1-645): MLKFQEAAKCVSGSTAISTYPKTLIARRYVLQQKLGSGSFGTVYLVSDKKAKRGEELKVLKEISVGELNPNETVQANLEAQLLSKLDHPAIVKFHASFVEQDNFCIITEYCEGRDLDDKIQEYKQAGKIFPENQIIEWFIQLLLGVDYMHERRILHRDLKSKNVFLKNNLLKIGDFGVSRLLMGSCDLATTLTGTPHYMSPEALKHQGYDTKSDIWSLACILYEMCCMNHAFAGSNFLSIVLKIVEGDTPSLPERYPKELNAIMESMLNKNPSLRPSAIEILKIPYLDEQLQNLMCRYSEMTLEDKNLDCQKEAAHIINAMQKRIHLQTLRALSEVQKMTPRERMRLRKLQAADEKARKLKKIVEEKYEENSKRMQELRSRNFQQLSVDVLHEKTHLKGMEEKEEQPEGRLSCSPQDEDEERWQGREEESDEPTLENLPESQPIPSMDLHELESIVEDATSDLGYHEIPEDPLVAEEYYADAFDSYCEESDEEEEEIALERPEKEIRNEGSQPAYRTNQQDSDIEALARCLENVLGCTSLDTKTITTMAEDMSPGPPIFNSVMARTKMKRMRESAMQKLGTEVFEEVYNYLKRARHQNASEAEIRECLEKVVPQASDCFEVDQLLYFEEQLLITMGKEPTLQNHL
In short: as §1

[11] = target: T11, 380 human recombinant protein kinases (Homo sapiens, UniProt Q9P289); details: MST4(h), read-out: Inhibition rate
T11 construct: purchased Eurofins (Celle Lévescault)
T11 sequence (Q9P289 whole entry): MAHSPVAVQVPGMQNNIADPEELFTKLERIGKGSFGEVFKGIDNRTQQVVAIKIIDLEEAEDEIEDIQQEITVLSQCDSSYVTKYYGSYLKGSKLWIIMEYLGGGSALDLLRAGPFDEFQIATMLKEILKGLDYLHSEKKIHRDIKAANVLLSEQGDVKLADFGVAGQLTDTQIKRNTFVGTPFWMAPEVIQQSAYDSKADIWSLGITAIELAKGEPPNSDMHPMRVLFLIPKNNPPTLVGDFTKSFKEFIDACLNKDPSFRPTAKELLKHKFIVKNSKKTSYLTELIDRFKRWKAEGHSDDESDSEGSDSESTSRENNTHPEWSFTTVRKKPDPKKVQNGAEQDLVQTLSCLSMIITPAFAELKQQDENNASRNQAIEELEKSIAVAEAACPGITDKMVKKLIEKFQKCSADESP
In short: as §1

[12] = target: T12, 380 human recombinant protein kinases (Homo sapiens, UniProt Q9UM73); details: ALK(h), read-out: Inhibition rate
T12 construct: purchased Eurofins (Celle Lévescault)
In short: as §1

C=CC(=O)Nc1cc(-c2cc(-c3cc4c([nH]3)CCNC4=O)ccn2)ccc1OC(F)(F)F [compound 11]
inhibition at 0.01 µM ([1]; 10 nM): -8% | inhibition at 0.1 µM ([1]; 100 nM): -5% | inhibition at 1 µM ([1]; 1000 nM): -13% | inhibition at 0.01 µM ([2]; 10 nM): 1% | inhibition at 0.1 µM ([2]; 100 nM): 1% | inhibition at 1 µM ([2]; 1000 nM): 6% | inhibition at 0.01 µM ([3]; 10 nM): 2% | inhibition at 0.1 µM ([3]; 100 nM): 2% | inhibition at 1 µM ([3]; 1000 nM): 4% | inhibition at 0.01 µM ([4]; mTOR(h)): -1% | inhibition at 0.1 µM ([4]; mTOR(h)): 2% | inhibition at 1 µM ([4]; mTOR(h)): 7% | inhibition at 0.01 µM ([4]; mTOR/FKBP12(h)): 8% | inhibition at 0.1 µM ([4]; mTOR/FKBP12(h)): 12% | inhibition at 1 µM ([4]; mTOR/FKBP12(h)): 6% | inhibition at 0.01 µM ([5]; 10 nM): -3% | inhibition at 0.1 µM ([5]; 100 nM): 3% | inhibition at 1 µM ([5]; 1000 nM): 10% | inhibition at 0.01 µM ([6]; 10 nM): 1% | inhibition at 0.1 µM ([6]; 100 nM): -2% | inhibition at 1 µM ([6]; 1000 nM): 3% | inhibition at 0.01 µM ([7]; 10 nM): 7% | inhibition at 0.1 µM ([7]; 100 nM): 8% | inhibition at 1 µM ([7]; 1000 nM): 7% | inhibition at 0.01 µM ([8]; 10 nM): 52% | inhibition at 0.1 µM ([8]; 100 nM): 88% | inhibition at 1 µM ([8]; 1000 nM): 99% | inhibition at 0.01 µM ([9]; 10 nM): -4% | inhibition at 0.1 µM ([9]; 100 nM): -7% | inhibition at 1 µM ([9]; 1000 nM): -3% | inhibition at 0.01 µM ([10]; 10 nM): -1% | inhibition at 0.1 µM ([10]; 100 nM): 0% | inhibition at 1 µM ([10]; 1000 nM): -4% | inhibition at 0.01 µM ([11]; 10 nM): -5% | inhibition at 0.1 µM ([11]; 100 nM): -8% | inhibition at 1 µM ([11]; 1000 nM): 2% | inhibition at 0.01 µM ([12]; 10 nM): 6% | inhibition at 0.1 µM ([12]; 100 nM): 6% | inhibition at 1 µM ([12]; 1000 nM): 16%
